Data on 95 compounds can be found in PubChem BioAssay AID624404 (Broad Institute, 2012).

Each structure is given as a SMILES string. Inconclusive results are not listed.

The test deals with D54 LucT luciferase reporter counterscreen, luminescence, 24 h. Briefly: luciferase activators in glycosylation-insensitive reporter cells, dose response, counter-screen for N-linked glycosylation inhibitor project, D54 LucT cells, luminescence, cherry pick (AID 624404). On the technique in general: The purpose of a counterscreen is to sort out artefacts and off-target activity.
Take `O=C1c2ccccc2C(=O)N1Cc1cnc(N2CCN(c3ccccc3)CC2)s1`: the AC35 was 2890 nM.

For `COC(=O)c1ccc(C)c(NC(=O)CN(c2cc(OC)ccc2OC)S(C)(=O)=O)c1`, the AC35 was 226 nM.

Regarding `CNC(=O)c1cccn(Cc2ccc(C(F)(F)F)cc2)c1=O`, the AC35 is 1240 nM.

For `O=C(N/N=C/c1ccccn1)c1sc2ccccc2c1Cl`, the AC35 was 93.1 nM.

For `CCn1ncc(C2=NOC(C(=O)NCc3ccccc3)C2)c1C` (stereo not given), the AC35 was 9540 nM.

Take `Cn1c(=O)[nH]c(=O)c2c1nc(NN)n2CCOc1ccccc1`: the AC35 was 3090 nM.

Regarding `CN(CCCNC(=O)CCCOc1cc(=O)n(C)c2ccccc12)Cc1ccccc1`, the AC35 was 5230 nM.

As to `Cc1ccc2nc(-c3ccccc3)cc(C(=O)N3CC(C)OC(C)C3)c2c1` (stereo not given), the AC35 is 1920 nM.

As to `CC[C@H](C)[C@@H](NC(=O)O[C@@H]1C(=O)c2cc(OC)ccc2O[C@H]1c1ccc(OC)c(Br)c1)C(=O)OC`, the AC35 is 1480 nM.

For `Cc1ccc(S(=O)(=O)N(C)C[C@H]2Oc3ccc(NC(=O)C4CCCCC4)cc3C(=O)N([C@H](C)CO)C[C@H]2C)cc1`, the AC35 is 555 nM.

With `O=C1Cc2c(-c3ccccc3)cc(-c3cccc(Cl)c3)nc2-c2ccccc2N1`, the AC35 was 5370 nM.

Turning to `COc1ccc2nc3ccccc3nc2c1NC(=O)c1ccccc1Cl`, the AC35 was 17900 nM.

As to `COc1cc(CN2CCc3ccccc3C2)ccc1O`, the AC35 was 2000 nM.

As to `O=C(C=Cc1cccc(O)c1)c1ccccc1O`, the AC35 is 4500 nM.

With `Cc1ccnc2nc(C(=O)Nc3cc(Cl)ccc3N3CCOCC3)nn12`, the AC35 was 155 nM.

On to `NS(=O)(=O)c1ccc(NC(=O)c2cccc3cc4ccccc4nc23)cc1`, for which the AC35 was 6580 nM.

With `CC1CN(C(=O)c2cc(-c3ccc(Cl)s3)nc3ccccc23)CC(C)O1` (stereo not given), the AC35 is 3320 nM.

As to `Cc1ccc2[nH]c(=O)c3cc(C(=O)NC(C)C)sc3c2c1`, the AC35 is 2390 nM.

In the case of `COc1cc(N=Nc2cccc(S(N)(=O)=O)c2)c2ccccc2c1N`, the AC35 was 1660 nM.

As to `C=C(C)Cn1c2ccc(NC(=O)CCc3cccc(Cl)c3)cc2c(=O)n1C`, the AC35 was 4260 nM.

As for `C=CCOc1ccc(/C=C2\SC(N3CCCCC3)=NC2=O)cc1`, the AC35 was 8.9 nM.

As for `O=C(Nc1ccccc1N1CCOCC1)c1ccc2nc[nH]c2c1`, the AC35 was 852 nM.

Turning to `COc1cc(C(=O)NCC(=O)NCCN2C(=O)S/C(=C\c3ccccc3Cl)C2=O)cc(OC)c1OC`, the AC35 is 1150 nM.

As to `O=c1cc(-c2ccccc2)nc2cc(-c3ccc(F)cc3)[nH]n12`, the AC35 was 2190 nM.

Consider `CNC(=O)c1cccn(Cc2cccc(C(F)(F)F)c2)c1=O`, for which the AC35 is 231 nM.

With `COCCNC(=O)c1cc(-c2cccs2)on1`, the AC35 was 1020 nM.

`C[C@]1(O)CC(=O)C=C[C@H]1Nc1ccccc1`: the AC35 was 1970 nM.

Take `CCc1nn2c(NCCCO)cc(C)nc2c1-c1ccc(F)cc1`: the AC35 was 184 nM.

For `CC(=O)N1CCc2c(sc(NC(=O)c3ccc4c(c3)OCCO4)c2C#N)C1`, the AC35 is 1520 nM.

`CCn1c2ccccc2c2cc(/C=N/NC(=O)c3ccc(O)cc3)ccc21`: the AC35 is 4490 nM.

Consider `Cc1cc(C(=O)N/N=C/c2c3ccccc3cc3ccccc23)n[nH]1`, for which the AC35 is 643 nM.

Take `O=C(C[C@H]1C/C=C\C[C@H](Cc2ccc(F)cc2)C(=O)O[C@@H](c2ccccc2)CNC1=O)N[C@@H](CO)Cc1ccccc1`: the AC35 is 575 nM.

Turning to `Cc1cc(C)cc(N=Cc2ccc([N+](=O)[O-])s2)c1`, the AC35 was 724 nM.

Turning to `Cn1c(SCC(=O)c2ccccc2)ncc(C(=O)Nc2ccccc2)c1=O`, the AC35 was 382 nM.

As for `CCOC(=O)c1c(C)c(C(=O)Nc2cc(F)ccc2F)c(C)n1C`, the AC35 is 3020 nM.

Regarding `Cc1ccc(C(=O)N/C(=C\c2ccco2)C(=O)NCCc2c[nH]c3ccccc23)cc1`, the AC35 is 1740 nM.

`Cc1ccc2c(c1)[C@H]1[C@H](CO2)[C@H](c2ccccc2)[C@]2(C)C(=O)Nc3cc(Cl)ccc3C(=O)N12`: the AC35 is 1060 nM.

For `O=C(O)c1ccc(N/N=C/c2ccc(-c3ccc(Cl)cc3Cl)o2)cc1`, the AC35 was 1470 nM.

On to `COC1C(O)C(C)OC(OC2C(Oc3cccc4c(O)c5c(=O)oc6ccc(C)c7c(=O)oc(c34)c5c67)OC(C)C(O)C2O)C1O` (stereo not given), for which the AC35 is 376 nM.

As for `CSc1cccc(NC(=O)CCCOc2cc(=O)n(C)c3ccccc23)c1`, the AC35 is 4530 nM.

Take `CCNC(=O)COc1ccc(/C=C2\COc3ccccc3C2=O)cc1OC`: the AC35 is 4800 nM.

Turning to `COC(=O)c1cc(=O)n(-c2ccc(F)cc2)c(=Nc2ccc(F)cc2)s1`, the AC35 was 25.1 nM.

Consider `Cc1cc(-c2nnc3n2N=C(c2ccc(-c4ccccc4)cc2)CS3)n[nH]1`, for which the AC35 is 1260 nM.

Take `COc1ccc(Cl)cc1/C=C/c1ccc2cccc(O)c2n1`: the AC35 was 22.1 nM.

Consider `c1ccc2c(-c3nc4ccccc4[nH]3)cccc2c1`, for which the AC35 was 911 nM.

As for `COc1ccccc1NS(=O)(=O)c1ccc(C(=O)Nc2ncccc2O)cc1`, the AC35 was 8860 nM.

With `CCn1c2ccccc2c2cc(Nc3cc(C)nc4ncnn34)ccc21`, the AC35 is 420 nM.

As for `O=C(/C=C/c1ccccc1)c1ccccc1`, the AC35 is 1200 nM.

Consider `Cc1cccc(N2CCN(C(=O)c3ccc(Cl)c(S(=O)(=O)NCc4ccco4)c3)CC2)c1C`, for which the AC35 is 202 nM.

Take `Cn1c(=O)c2cc(NC(=O)CCc3ccccc3)ccc2n1-c1ccccc1F`: the AC35 is 2980 nM.

Consider `Cc1ccc(S(=O)(=O)C(NC(=O)c2ccccc2)=C(Cl)Cl)cc1`, for which the AC35 was 4390 nM.

For the compound `O=C1Cc2c([nH]c3ccc([N+](=O)[O-])cc23)-c2ccccc2N1`, the AC35 is 894 nM.

For `CN(C)CCCN(C(=O)c1ccc(S(=O)(=O)N2CCc3ccccc3C2)cc1)c1nc2ccc(F)cc2s1`, the AC35 is 5390 nM.

Regarding `c1ccc(C2=Nn3c(nnc3-c3n[nH]c4c3CCC4)SC2)cc1`, the AC35 was 2250 nM.

In the case of `COc1ccc(/C=N/NC(=O)c2ccccc2OCc2ccccc2)c(OC)c1`, the AC35 is 1600 nM.

Regarding `COc1cc2c(cc1OC)C(c1ccccc1)N(C(=O)c1ccccc1F)CC2` (stereo not given), the AC35 was 608 nM.

In the case of `CCC(c1nc2ccccc2c(=O)n1-c1nc2ccccc2s1)N1C(=O)c2ccccc2C1=O` (stereo not given), the AC35 was 740 nM.

As for `CCn1c2ccccc2c2cc(NC(=O)COC(=O)c3ccccc3F)ccc21`, the AC35 is 4220 nM.

`C[C@@]12C(=O)Nc3cc(Cl)ccc3C(=O)N1[C@H]1c3ccccc3OC[C@@H]1[C@@H]2c1ccccc1`: the AC35 is 282 nM.

Turning to `COc1cc(NC(=O)c2ccc(-c3c(C)noc3C)c3ccoc23)cc(OC)c1OC`, the AC35 was 58.2 nM.

Turning to `Cn1c(=O)n(C)c2cc(C(=O)Nc3ccc4c(c3)OCO4)ccc21`, the AC35 was 1870 nM.

For `O=C(N/N=C/c1ccc2c(c1)OCO2)C1COc2ccccc2O1` (stereo not given), the AC35 was 187 nM.

With `O=C(N/N=C/c1cccs1)c1cc(-c2cccc3ccccc23)n[nH]1`, the AC35 was 3530 nM.

Turning to `CCOC(=O)c1c(NC(=O)c2cc3n(n2)C(C(F)(F)F)CC(c2cccs2)N3)sc(C)c1C` (stereo not given), the AC35 is 5360 nM.

On to `CC(=O)Nc1sc(NC(=O)c2ccccc2)nc1-c1cccs1`, for which the AC35 is 8340 nM.

In the case of `COc1ccc2c(c1)[C@H]1[C@H](CO2)[C@H](c2ccccc2)[C@]2(C)C(=O)Nc3cc(OC)c(OC)cc3C(=O)N12`, the AC35 was 20.2 nM.

`Cn1c(-c2ccccc2)c(/C=N/NC(=O)c2cccnc2)c2ccccc21`: the AC35 is 171 nM.

As for `CCN1C(=O)CCN(C2CCCC2)c2nc(Nc3ccc(C(=O)NC4CCN(C)CC4)cc3OC)ncc21`, the AC35 is 226 nM.

`COc1cccc(C(NC(C)=O)c2nc(-c3ccc(F)cc3OC)cs2)c1` (stereo not given): the AC35 is 63.3 nM.

On to `O=C(/C(=C\c1ccccc1)c1nc2ccccc2[nH]1)c1ccc(Cl)cc1`, for which the AC35 was 306 nM.

Consider `CC1(C(=O)NCc2ccccc2)Cc2c(-c3cccc(C(N)=O)c3)ccnc2O1` (stereo not given), for which the AC35 is 651 nM.

Regarding `O=C(N/N=C/c1ccccc1)c1sccc1OCc1ccc(F)cc1`, the AC35 was 3060 nM.

For the compound `NC(=O)CC(NC(=O)c1ccc(Br)cc1)c1ccc(N2CCCCCC2)c([N+](=O)[O-])c1` (stereo not given), the AC35 was 1090 nM.

For `Cc1nc(N=C(N)N)nc2c(C)cccc12`, the AC35 is 3820 nM.

Turning to `CC(=O)Nc1ccc(NC(=O)c2ccc(-c3c(C)noc3C)c3ccoc23)cc1`, the AC35 was 5690 nM.

Regarding `COc1ccc(CNC(=O)c2cccc3c(-c4cnn(C)c4)coc23)cc1OC`, the AC35 is 1300 nM.

For `O=S(=O)([N-]c1nc2ccccc2nc1-n1cc[n+](Cc2ccccc2)c1)c1ccccc1`, the AC35 is 648 nM.

Regarding `N#CC1=C(N)Oc2c(c(=O)sc3ccccc23)C1c1cccnc1` (stereo not given), the AC35 was 1260 nM.

As for `Cc1ccc(C(=O)N2CCN(Cc3ccccc3)CC2)cc1S(=O)(=O)N1CCOCC1`, the AC35 was 2960 nM.

As to `CC#CC#Cc1cccc(=O)o1`, the AC35 is 407 nM.

With `Nc1[nH]nc2nc(NCc3ccccc3)c3c(c12)CCN(Cc1ccccc1)C3`, the AC35 was 2840 nM.

On to `Cc1ccc2c(CC(=O)NCc3ccco3)coc2c1C`, for which the AC35 is 4460 nM.

`COc1ccc(NC(=O)c2cc3c(=O)n(C)c4ccccc4c3n2C)cc1OC`: the AC35 is 4000 nM.

For the compound `O=C(NCCN1C(=O)S/C(=C\c2ccccc2Cl)C1=O)C1=COCCO1`, the AC35 is 4980 nM.

Take `COc1cc(NC(=O)c2ccccc2OCc2ccccc2)cc(OC)c1OC`: the AC35 was 1080 nM.

For `Cc1cccc(Nc2nc(N)nc(-c3oc4ccccc4c3C)n2)c1`, the AC35 is 1570 nM.

For `CCOc1cc(C(=O)Nc2ccc(N3CCOCC3)cc2)cc(Br)c1OC`, the AC35 was 3660 nM.

For the compound `COc1ccc(Cl)cc1S(=O)(=O)Nc1ccc2c(c1)n(C)c(=O)n2C`, the AC35 is 535 nM.

Turning to `Cn1c(=O)[nH]c(=O)c2c1nc(SCC(N)=O)n2Cc1cccc(Br)c1`, the AC35 is 421 nM.

Take `Cc1ccc2nc(SCC(=O)Nc3ccc4sc(C)nc4c3)c(C#N)cc2c1`: the AC35 is 4.83 nM.

Take `O=C(c1cccc(Oc2ccccc2)c1)N1CCN(c2ccccn2)CC1`: the AC35 is 2960 nM.

On to `Cc1ccc2c(c1)NC(=O)[C@@]1(C)[C@@H](c3ccccc3)[C@H]3COc4ccccc4[C@@H]3N1C2=O`, for which the AC35 is 371 nM.

On to `CCOc1ccc2cc(/C=C/C(=O)c3ccco3)c(Cl)nc2c1`, for which the AC35 is 4140 nM.

`CCOc1ccc(/C=C2\SC(N3CCCCC3)=NC2=O)cc1`: the AC35 is 5570 nM.

Regarding `COc1ccc(Nc2nc(N)c(C(=O)c3ccc(OC)cc3)s2)cc1`, the AC35 is 148 nM.
